We go through 18 molecules from patent US20140309192A1, “MODULATORS OF THE G PROTEIN-COUPLED MAS RECEPTOR AND THE TREATMENT OF DISORDERS RELATED THERETO” (ARENA PHARMACEUTICALS, INC., priority 2011, published 2014).

Broadly, the IC50 is the concentration at which inhibition is half-maximal.

For test [1], the target named is T1, rat Mas receptor (Rattus norvegicus, UniProt P12526).
T1 construct: expressed in transfected cells; host or cells: HEK293 (ATCC CRL-1573)
T1 sequence (P12526 1-324): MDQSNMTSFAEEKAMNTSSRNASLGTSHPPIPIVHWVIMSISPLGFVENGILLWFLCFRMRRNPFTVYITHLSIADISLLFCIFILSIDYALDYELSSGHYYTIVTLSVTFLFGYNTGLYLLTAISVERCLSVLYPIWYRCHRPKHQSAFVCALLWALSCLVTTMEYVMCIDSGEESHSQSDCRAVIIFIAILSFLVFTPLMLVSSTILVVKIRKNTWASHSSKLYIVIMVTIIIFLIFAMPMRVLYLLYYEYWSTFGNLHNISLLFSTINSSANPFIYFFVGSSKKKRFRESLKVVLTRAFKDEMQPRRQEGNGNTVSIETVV
In words: HTRF IP1 assay, HEK293 cells expressing rat Mas receptor. The format is cell-based. The settings on record: HTRF IP1 assay, rat Mas receptor (Table B.1); read-out: IC50. From the text:
(§1) Human and rat Mas receptors were either transiently or stably expressed in HEK293 cells. For transient transfections, human or rat Mas in pHM6 vector were transfected into HEK293 cells using Lipofectamine® (Invitrogen #18324-012). HEK293 cells transfected with empty pHM6 vector were used as a control. For generation of stable cell lines, cDNA expression plasmids encoding human or rat Mas genes and the neo^r gene were transfected into HEK293 cells (ATCC# CRL-1573) using Lipofectamine® (Invitrogen) according to the manufacturer's instructions. Stable receptor expressing pools were then generated over 3 weeks by standard techniques in the presence of 500 μg/mL Geneticin® (Gibco). Individual receptor stable pools were dilution cloned using standard techniques and clones were comparatively evaluated in inositol phosphate accumulation assays. Preferred clones were banked and cultured as needed. HEK293 cells were used as controls. The 384 well IP-One HTRF® Assay (Cisbio #62P1APEJ) was performed as described by the manufacturer's protocol. Cells were plated in at 100,000 cells per well in 15 μL DMEM (Gibco #11960) and incubated in a CO2 incubator at 37° C. for 2 h. Five μL of compounds diluted in 2× stimulation buffer plus 0.4% BSA (Sigma (#A3059) were added to each well and serial diluted IP1 standards (Cisbio #62IP1CDA) were also added to corresponding wells at this step. After the cells were incubated for 4 h in a CO2 incubator at 37° C., d2-labeled IP1 and cryptate-labeled anti-IP1 monoclonal antibody diluted in lysis buffer were added sequentially in 10 μL per well and the assay plates were kept in the dark at room temperature overnight. Ratiometric measurements of fluorescence emission at 665 nm and 620 nm were obtained using a Pherastar fluorometer (BMG Labtech). IP1 levels in each well were calculated according to the standard curves on each plate. IC50 values were obtained by fitting data to a nonlinear curve-fitting program (GraphPad Software, Inc., La Jolla Calif.).
In general terms: TR-FRET usually uses a lanthanide donor and a delayed reading to cut background.

The target in test [2] is T2, human Mas receptor (Homo sapiens, UniProt P04201).
T2 construct: expressed in transfected cells; host or cells: HEK293 (ATCC CRL-1573)
T2 sequence (P04201 1-325): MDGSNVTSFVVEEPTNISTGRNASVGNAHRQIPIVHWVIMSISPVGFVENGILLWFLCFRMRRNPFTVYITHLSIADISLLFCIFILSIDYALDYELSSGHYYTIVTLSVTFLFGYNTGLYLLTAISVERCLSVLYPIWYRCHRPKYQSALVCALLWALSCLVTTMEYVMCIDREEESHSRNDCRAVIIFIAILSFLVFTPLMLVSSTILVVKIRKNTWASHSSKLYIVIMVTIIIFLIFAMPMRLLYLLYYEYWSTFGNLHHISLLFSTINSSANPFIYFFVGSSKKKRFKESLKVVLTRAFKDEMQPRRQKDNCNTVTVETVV
Kind of test: HTRF IP1 assay, HEK293 cells expressing human Mas receptor. Conditions: HTRF IP1 assay, human Mas receptor (Table B.2); read-out: IC50. The format is cell-based.
Source text: as §1

As to `O=C(Nc1ccc(Cl)cc1N1CCN(CCC(F)(F)F)CC1)c1ccc(CN2CCC(CO)CC2)cc1F` [Compound 54, N-(4-Chloro-2-(4-(3,3,3-trifluoropropyl)piperazin-1-yl)phenyl)-2-fluoro-4-((4-(hydroxymethyl)piperidin-1-yl)methyl)benzamide], the IC50 in test [1] was 497 nM.

As to `C[C@H](NCc1ccc(C(=O)Nc2ccc(Cl)cc2N2CCN(CCC(F)(F)F)CC2)c(F)c1)C(N)=O` [Compound 67, (S)-4-((1-Amino-1-oxopropan-2-ylamino)methyl)-N-(4-chloro-2-(4-(3,3,3-trifluoropropyl)piperazin-1-yl)phenyl)-2-fluorobenzamide], in test [1], the IC50 was found to be 82 nM.

Turning to `O=C(Nc1ccc(Cl)cc1N1CCN(CCC(F)(F)F)CC1)c1ccc(CNC2CCCCNC2=O)cc1F` (centres unmarked) [Compound 79, N-(4-Chloro-2-(4-(3,3,3-trifluoropropyl)piperazin-1-yl)phenyl)-2-fluoro-4-((2-oxoazepan-3-ylamino)methyl)benzamide], the IC50 in test [1] came to 133 nM.

Regarding `N[C@@H]1CCCN(Cc2ccc(C(=O)Nc3ccc(Cl)cc3N3CCN(CCC(F)(F)F)CC3)c(F)c2)C1` [Compound 90, (R)-4-((3-Aminopiperidin-1-yl)methyl)-N-(4-chloro-2-(4-(3,3,3-trifluoropropyl)piperazin-1-yl)phenyl)-2-fluorobenzamide], the concentration for half-maximal inhibition (IC50) in test [1] came to 704 nM.

`O=C(Nc1ccc(Cl)cc1N1CCN(CCC(F)(F)F)CC1)c1ccc(CNC(CO)(CO)CO)cc1F` [Compound 103, N-(4-Chloro-2-(4-(3,3,3-trifluoropropyl)piperazin-1-yl)phenyl)-4-((1,3-dihydroxy-2-(hydroxymethyl)propan-2-ylamino)methyl)-2-fluorobenzamide]: the IC50 in test [1] is 535 nM.

With `CCN1CCCCC(NCc2ccc(C(=O)Nc3ccc(Cl)cc3N3CCN(CCC(F)(F)F)CC3)c(F)c2)C1=O` (centres unmarked) [Compound 117, N-(4-Chloro-2-(4-(3,3,3-trifluoropropyl)piperazin-1-yl)phenyl)-4-((1-ethyl-2-oxoazepan-3-ylamino)methyl)-2-fluorobenzamide], the half-maximal inhibitory concentration (IC50) in test [1] amounted to 373 nM.

For `C[C@@H](O)CNCc1ccc(C(=O)Nc2ccc(Cl)cc2N2CCN(CCC(F)(F)F)CC2)c(F)c1` [Compound 130, (R)—N-(4-Chloro-2-(4-(3,3,3-trifluoropropyl)piperazin-1-yl)phenyl)-2-fluoro-4-((2-hydroxypropylamino)methyl)benzamide], the IC50 in test [1] was determined as 252 nM.

Turning to `O=C(Nc1ccc(Cl)cc1N1CCN(CCC(F)(F)F)CC1)c1ccc(CN(CCO)CCO)cc1F` [Compound 144], the IC50 in test [1] stood at 108 nM.

On to `O=C(Nc1ccc(Cl)cc1N1CCN(CCC(F)(F)F)CC1)c1ccc(CN2CCN3CCCC3C2)cc1F` (centres unmarked) [Compound 157, N-(4-Chloro-2-(4-(3,3,3-trifluoropropyl)piperazin-1-yl)phenyl)-2-fluoro-4-((hexahydropyrrolo[1,2-a]pyrazin-2(1H)-yl)methyl)benzamide], for which the 50% inhibitory concentration (IC50) in test [1] is 184 nM.

Take `O=C(Nc1ccc(Cl)cc1N1CCN(CCC(F)(F)F)CC1)c1ccc(CN2CCS(=O)(=O)CC2)c(F)c1F` [Compound 168, N-(4-Chloro-2-(4-(3,3,3-trifluoropropyl)piperazin-1-yl)phenyl)-2,3-difluoro-4-((1,1-dioxo-thiomorpholin-4-yl)methyl)benzamide]: the half-maximal inhibitory concentration (IC50) in test [1] came out at 27.2 nM.

For `O=C(Nc1ccc(Cl)cc1N1CCN(CCC(F)(F)F)CC1)c1ccc(CN(CCO)CCO)c(F)c1F` [Compound 178], the IC50 in test [1] turned out to be 44.8 nM; in test [2] it was 34.4 nM.

As for `O=C1CN(Cc2ccc(C(=O)Nc3cc(Cl)c(Cl)cc3N3CCN(CCC(F)(F)F)CC3)c(F)c2F)CCN1` [Compound 188, N-(4,5-Dichloro-2-(4-(3,3,3-trifluoropropyl)piperazin-1-yl)phenyl)-2,3-difluoro-4-((3-oxopiperazin-1-yl)methyl)benzamide], the concentration for half-maximal inhibition (IC50) in test [1] stood at 29 nM.

Turning to `COC(=O)[C@H](CN)NCc1ccc(C(=O)Nc2ccc(Cl)cc2N2CCN(CCC(F)(F)F)CC2)c(F)c1` [Compound 198, (S)-Methyl 3-amino-2-(4-(4-chloro-2-(4-(3,3,3-trifluoropropyl)piperazin-1-yl)phenylcarbamoyl)-3-fluorobenzylamino)propanoate], in test [1], the 50% inhibitory concentration (IC50) was determined as 173 nM.

As for `CN(CC(=O)O)Cc1ccc(C(=O)Nc2ccc(Cl)cc2N2CCN(CCC(F)(F)F)CC2)c(F)c1F` [Compound 210, 2-((4-(4-Chloro-2-(4-(3,3,3-trifluoropropyl)piperazin-1-yl)phenylcarbamoyl)-2,3-difluorobenzyl)(methyl)amino)acetic acid], the 50% inhibitory concentration (IC50) in test [1] came out at 68 nM.

`CC(C)(C)OC(=O)NCC[C@H](NCc1ccc(C(=O)Nc2ccc(Cl)cc2N2CCN(CCC(F)(F)F)CC2)c(F)c1F)C(=O)O` [Compound 221, (S)-4-(tert-Butoxycarbonylamino)-2-(4-(4-chloro-2-(4-(3,3,3-trifluoropropyl)piperazin-1-yl)phenylcarbamoyl)-2,3-difluorobenzylamino)butanoic acid]: in test [1], the IC50 turned out to be 157 nM.

In the case of `O=C(O)C[C@H]1CNCCN1Cc1ccc(C(=O)Nc2ccc(Cl)cc2N2CCN(CCC(F)(F)F)CC2)c(F)c1F` [Compound 231, (S)-2-(1-(4-(4-Chloro-2-(4-(3,3,3-trifluoropropyl)piperazin-1-yl)phenylcarbamoyl)-2,3-difluorobenzyl)piperazin-2-yl)acetic acid], the figures for the IC50 in test [1] and in test [2] were 50 nM and 74.3 nM, respectively.

In the case of `C[C@@H](CO)NC(=O)C1CNCCN1Cc1ccc(C(=O)Nc2ccc(Cl)cc2N2CCN(CCC(F)(F)F)CC2)c(F)c1F` (stereo partly drawn) [Compound 242, 1-(4-(4-Chloro-2-(4-(3,3,3-trifluoropropyl)piperazin-1-yl)phenylcarbamoyl)-2,3-difluorobenzyl)-N—((S)-1-hydroxypropan-2-yl)piperazine-2-carboxamide], the IC50 in test [1] came to 315 nM.

For `O=C(Nc1ccc(Cl)cc1N1CCN(CCC(F)(F)F)CC1)c1ccc(CN2CCC[C@@H](CO)C2)c(F)c1F` [Compound 252, (R)—N-(4-Chloro-2-(4-(3,3,3-trifluoropropyl)piperazin-1-yl)phenyl)-2,3-difluoro-4-((3-(hydroxymethyl)piperidin-1-yl)methyl)benzamide], the IC50 in test [1] worked out at 115 nM.
